Reference: ChEMBL document CHEMBL4043074, “Bortezomib inhibits mammalian carbonic anhydrases” (Bioorg Med Chem, 2017)

How the values were obtained:
Carbonic anhydrase 9 = Carbonic anhydrase 9 (Homo sapiens, UniProt Q16790)
Description: Inhibition of human CA9 by stopped-flow CO2 hydrase assay

Carbonic anhydrase 1 = Carbonic anhydrase 1 (Homo sapiens, UniProt P00915)
Description: Inhibition of human CA1 by stopped-flow CO2 hydrase assay

Carbonic anhydrase 2 = Carbonic anhydrase 2 (Homo sapiens, UniProt P00918)
Description: Inhibition of human CA2 by stopped-flow CO2 hydrase assay

Carbonic anhydrase 12 = Carbonic anhydrase 12 (Homo sapiens, UniProt O43570)
Description: Inhibition of human CA12 by stopped-flow CO2 hydrase assay

Carbonic anhydrase 14 = Carbonic anhydrase 14 (Homo sapiens, UniProt Q9ULX7); assay: Inhibition of human CA14 by stopped-flow CO2 hydrase assay
Carbonic anhydrase 14, sequence (Q9ULX7 whole entry): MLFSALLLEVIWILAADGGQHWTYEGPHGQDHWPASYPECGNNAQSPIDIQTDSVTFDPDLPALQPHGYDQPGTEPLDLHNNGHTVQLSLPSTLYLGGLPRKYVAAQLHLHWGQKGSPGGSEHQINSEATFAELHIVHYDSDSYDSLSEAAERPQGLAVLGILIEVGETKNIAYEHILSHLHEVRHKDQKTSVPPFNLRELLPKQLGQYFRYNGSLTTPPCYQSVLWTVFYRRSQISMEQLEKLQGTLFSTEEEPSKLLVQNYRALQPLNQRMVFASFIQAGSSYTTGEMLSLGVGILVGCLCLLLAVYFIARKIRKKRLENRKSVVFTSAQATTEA

[1] = biological target: Carbonic anhydrase 5B, mitochondrial (Homo sapiens, UniProt Q9Y2D0); assay: Inhibition of human CA5B by stopped-flow CO2 hydrase assay
Carbonic anhydrase 5B, mitochondrial, sequence (Q9Y2D0 whole entry): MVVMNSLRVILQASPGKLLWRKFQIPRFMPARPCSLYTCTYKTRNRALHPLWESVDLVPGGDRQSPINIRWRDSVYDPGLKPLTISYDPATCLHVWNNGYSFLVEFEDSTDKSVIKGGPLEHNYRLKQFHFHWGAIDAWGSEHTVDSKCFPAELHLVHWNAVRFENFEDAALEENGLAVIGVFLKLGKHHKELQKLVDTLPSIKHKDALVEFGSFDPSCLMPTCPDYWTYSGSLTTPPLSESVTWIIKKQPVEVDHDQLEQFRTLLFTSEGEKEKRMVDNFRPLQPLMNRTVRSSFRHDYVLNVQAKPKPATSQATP

Carbonic anhydrase 4 = Carbonic anhydrase 4 (Homo sapiens, UniProt P22748); assay: Inhibition of human CA4 by stopped-flow CO2 hydrase assay
Carbonic anhydrase 4, sequence (P22748 whole entry): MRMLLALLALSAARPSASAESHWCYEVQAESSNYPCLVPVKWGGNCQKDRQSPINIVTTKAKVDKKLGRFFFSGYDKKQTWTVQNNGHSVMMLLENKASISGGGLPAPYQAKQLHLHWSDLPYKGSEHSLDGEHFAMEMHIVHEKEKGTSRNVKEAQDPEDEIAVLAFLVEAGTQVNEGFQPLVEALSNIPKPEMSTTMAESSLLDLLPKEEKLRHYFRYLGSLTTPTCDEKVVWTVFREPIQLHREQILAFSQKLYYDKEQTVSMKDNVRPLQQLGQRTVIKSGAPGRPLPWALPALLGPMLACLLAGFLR

Carbonic anhydrase 15 = biological target: T1, Carbonic anhydrase 15 (Mus musculus, UniProt Q99N23)
T1 sequence (Q99N23 whole entry): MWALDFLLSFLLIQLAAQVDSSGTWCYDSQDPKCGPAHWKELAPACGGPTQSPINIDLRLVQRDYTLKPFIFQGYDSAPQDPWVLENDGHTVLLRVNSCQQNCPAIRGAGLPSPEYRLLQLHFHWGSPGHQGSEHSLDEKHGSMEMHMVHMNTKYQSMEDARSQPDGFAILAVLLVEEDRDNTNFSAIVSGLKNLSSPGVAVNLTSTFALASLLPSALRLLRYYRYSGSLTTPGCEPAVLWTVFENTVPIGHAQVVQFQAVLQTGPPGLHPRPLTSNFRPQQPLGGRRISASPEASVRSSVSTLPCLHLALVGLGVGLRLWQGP
Description: Inhibition of mouse CA15 by stopped-flow CO2 hydrase assay

Carbonic anhydrase 6 = Carbonic anhydrase 6 (Homo sapiens, UniProt P23280)
Carbonic anhydrase 6, sequence (P23280 whole entry): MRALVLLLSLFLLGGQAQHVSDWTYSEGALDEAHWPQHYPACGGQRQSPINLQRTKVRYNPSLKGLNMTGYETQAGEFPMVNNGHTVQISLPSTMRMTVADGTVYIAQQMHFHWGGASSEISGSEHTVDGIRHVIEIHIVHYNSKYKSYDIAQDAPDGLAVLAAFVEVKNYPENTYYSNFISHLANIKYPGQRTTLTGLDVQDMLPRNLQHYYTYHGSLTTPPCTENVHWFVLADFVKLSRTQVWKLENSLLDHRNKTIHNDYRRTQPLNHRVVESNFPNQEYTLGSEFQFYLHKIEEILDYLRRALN
Description: Inhibition of human CA6 by stopped-flow CO2 hydrase assay

Carbonic anhydrase 13 = Carbonic anhydrase 13 (Homo sapiens, UniProt Q8N1Q1); assay: Inhibition of human CA13 by stopped-flow CO2 hydrase assay
Carbonic anhydrase 13, sequence (Q8N1Q1 whole entry): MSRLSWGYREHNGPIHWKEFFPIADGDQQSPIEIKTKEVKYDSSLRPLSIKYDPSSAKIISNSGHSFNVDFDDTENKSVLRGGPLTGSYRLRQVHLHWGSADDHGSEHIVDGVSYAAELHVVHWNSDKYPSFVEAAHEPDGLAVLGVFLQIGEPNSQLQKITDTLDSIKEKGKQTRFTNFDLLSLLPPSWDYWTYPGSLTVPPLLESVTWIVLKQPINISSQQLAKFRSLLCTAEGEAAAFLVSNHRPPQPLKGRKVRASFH

Carbonic anhydrase 7 = Carbonic anhydrase 7 (Homo sapiens, UniProt P43166)
Carbonic anhydrase 7, sequence (P43166 whole entry): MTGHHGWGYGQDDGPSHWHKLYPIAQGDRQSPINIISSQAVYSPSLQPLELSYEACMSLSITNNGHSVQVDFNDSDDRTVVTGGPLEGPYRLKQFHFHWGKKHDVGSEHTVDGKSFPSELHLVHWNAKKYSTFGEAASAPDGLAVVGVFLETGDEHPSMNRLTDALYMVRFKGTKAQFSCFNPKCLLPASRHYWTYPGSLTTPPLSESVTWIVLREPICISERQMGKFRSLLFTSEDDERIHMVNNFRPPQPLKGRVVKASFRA
Description: Inhibition of human CA7 by stopped-flow CO2 hydrase assay

[2] = biological target: Carbonic anhydrase 5A, mitochondrial (Homo sapiens, UniProt P35218); assay: Inhibition of human CA5A by stopped-flow CO2 hydrase assay
Carbonic anhydrase 5A, mitochondrial, sequence (P35218 whole entry): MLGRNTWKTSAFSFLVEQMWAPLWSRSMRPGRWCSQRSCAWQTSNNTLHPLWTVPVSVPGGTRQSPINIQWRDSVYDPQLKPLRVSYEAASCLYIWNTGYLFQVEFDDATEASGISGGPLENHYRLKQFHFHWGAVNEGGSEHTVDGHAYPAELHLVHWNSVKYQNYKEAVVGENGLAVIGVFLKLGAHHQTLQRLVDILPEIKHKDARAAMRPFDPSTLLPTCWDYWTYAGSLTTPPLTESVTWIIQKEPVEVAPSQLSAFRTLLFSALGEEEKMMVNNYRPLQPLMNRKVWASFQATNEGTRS

Carbonic anhydrase 3 = Carbonic anhydrase 3 (Homo sapiens, UniProt P07451)
Carbonic anhydrase 3, sequence (P07451 whole entry): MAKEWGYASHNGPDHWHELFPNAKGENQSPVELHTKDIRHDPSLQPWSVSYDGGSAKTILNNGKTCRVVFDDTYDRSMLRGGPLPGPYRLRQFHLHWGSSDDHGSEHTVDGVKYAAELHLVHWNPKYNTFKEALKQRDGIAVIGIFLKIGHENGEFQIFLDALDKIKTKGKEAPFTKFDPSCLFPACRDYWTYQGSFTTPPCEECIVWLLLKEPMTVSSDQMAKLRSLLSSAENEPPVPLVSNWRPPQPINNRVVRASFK
Description: Inhibition of human CA3 by stopped-flow CO2 hydrase assay

Carbonic anhydrase 12, sequence (O43570 whole entry): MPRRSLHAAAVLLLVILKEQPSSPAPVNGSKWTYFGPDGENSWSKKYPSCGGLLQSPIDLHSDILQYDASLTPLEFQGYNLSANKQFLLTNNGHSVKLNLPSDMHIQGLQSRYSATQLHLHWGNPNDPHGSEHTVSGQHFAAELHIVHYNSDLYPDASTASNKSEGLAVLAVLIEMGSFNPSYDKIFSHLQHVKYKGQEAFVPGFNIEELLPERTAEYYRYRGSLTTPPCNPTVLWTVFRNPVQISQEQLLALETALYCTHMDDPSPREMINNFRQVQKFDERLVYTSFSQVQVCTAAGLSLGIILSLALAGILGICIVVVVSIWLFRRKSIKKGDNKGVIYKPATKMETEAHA
Carbonic anhydrase 1, sequence (P00915 whole entry): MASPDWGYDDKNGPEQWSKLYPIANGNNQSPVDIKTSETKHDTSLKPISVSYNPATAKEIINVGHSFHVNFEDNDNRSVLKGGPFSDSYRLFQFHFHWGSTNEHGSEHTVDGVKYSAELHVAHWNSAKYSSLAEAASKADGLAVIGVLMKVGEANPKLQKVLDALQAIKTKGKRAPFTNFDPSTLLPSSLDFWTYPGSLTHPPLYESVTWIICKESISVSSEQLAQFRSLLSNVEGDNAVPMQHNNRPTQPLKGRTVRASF

| Compound | Ki (Carbonic anhydrase 9) | Ki (Carbonic anhydrase 1) | Ki (Carbonic anhydrase 2) | Ki (Carbonic anhydrase 12) | Ki (Carbonic anhydrase 14) | Ki [1] | Ki (Carbonic anhydrase 4) | Ki (Carbonic anhydrase 15) | Ki (Carbonic anhydrase 6) | Ki (Carbonic anhydrase 13) | Ki (Carbonic anhydrase 7) | Ki [2] | Ki (Carbonic anhydrase 3) |
| --- | --- | --- | --- | --- | --- | --- | --- | --- | --- | --- | --- | --- | --- |
| OB1OCc2ccccc21 [BENZOXABOROLE] | > 50 µM | 5.69 µM | 8.18 µM | > 50 µM |  |  |  |  |  |  |  |  |  |
| CC(C)C[C@H](NC(=O)[C@H](Cc1ccccc1)NC(=O)c1cnccn1)B(O)O [BORTEZOMIB] | 3.38 µM |  |  | 5.87 µM | 3.28 µM | 6.83 µM | 6.51 µM | 2.68 µM | 4.38 µM | 8.45 µM | 6.94 µM | 6.92 µM | 4.57 µM |
| OB(O)c1ccccc1 [PHENYLBORONIC ACID] | > 50 µM | > 50 µM | > 50 µM | > 50 µM | > 50 µM | > 50 µM |  |  | > 50 µM | > 50 µM |  | > 50 µM | > 50 µM |
